The numbers were not newly measured in patent US20050272698A1, “Liquid stable composition of oxazaphosphorine with mesna” (priority 2002, published 2005), which cites them from elsewhere.

With `O=P1(NCCCl)OCCCN1CCCl` (centres unmarked) [Ifosfamide, 3-(2-chloroethyl)-2-[(2-chloroethyl)amino]tetrahydro-2H-1,3,2-oxazaphosphorin-2-oxide], the solubility in water result is “freely soluble in water”.

Take `O=S(=O)([O-])CCS.[Na+]` [Mesna, sodium-2-mercaptoethanesulphonate]: the solubility in water entry is reported as “highly water soluble”.
